Our source for the T/C values is PubChem BioAssay AID180 (DTP/NCI, 2004).

Several values for one entry are separate records, joined by “and”; a condition that tells them apart may be missing. Equal entries are not always repeated.

One may read the T/C as the result in the treated group divided by that in the control group, in per cent.

This test relates to BDF1 mice, Adenocarcinoma 755 s.c., tumor weight T/C. Nature of the test: NCI In Vivo Anticancer Drug Screen. Data for tumor model Adenocarcinoma 755 (subcutaneous) in B6D2F1 (BDF1) mice. Conditions: endpoint: mean tumor weight, higher = larger tumour. The method, boiled down:
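Compound activity was tested in mice carrying transplanted tumors. Survival or tumor size was measured, and each value is the treated-group measurement divided by that of the vehicle-treated control group (T/C).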

[1] abbreviates: dose: 12.0 mg/kg/injection, schedule: Q01DX011 (ip), vehicle: methylcellulose (MC).
The mark [2] stands for this setting: dose: 62.5 mg/kg/injection, schedule: Q01DX011 (ip), vehicle: carboxymethylcellulose (CMC).
Setting [3] is: dose: 25.0 mg/kg/injection, schedule: Q01DX011 (ip), vehicle: methylcellulose (MC).
Setting [4] is: dose: 25.0 mg/kg/injection, schedule: Q01DX011 (ip), vehicle: other.
[5] abbreviates: dose: 50.0 mg/kg/injection, schedule: Q01DX011 (ip), vehicle: other.
Where [6] appears, read: dose: 50.0 mg/kg/injection, schedule: Q01DX011 (ip), vehicle: methylcellulose (MC).
Setting [7] is: dose: 100.0 mg/kg/injection, schedule: Q01DX011 (ip), vehicle: methylcellulose (MC).
Where [8] appears, read: dose: 125.0 mg/kg/injection, schedule: Q01DX011 (ip), vehicle: saline.

Regarding `C[C@]1(O)CC[C@H]2[C@@H]3CC[C@@H]4CC(=O)CC[C@]4(C)[C@@]3(F)C(=O)C[C@@]21C`, the T/C is 72 % of control (dose: 200.0 mg/kg/injection, schedule: Q01DX011 (sc), vehicle: steriod suspending solution) and 117 % of control (dose: 400.0 mg/kg/injection, schedule: Q01DX011 (sc), vehicle: steriod suspending solution).

For the compound `COC(=O)c1[nH]c(=O)[nH]c(=O)c1F`, the T/C by setting is: (dose: 3.0 mg/kg/injection, schedule: Q01DX011 (ip), vehicle: methylcellulose (MC)) 72 % of control; (dose: 6.0 mg/kg/injection, schedule: Q01DX011 (ip), vehicle: methylcellulose (MC)) 63 % of control; under setting [1], 91 % of control.

`O=[N+]([O-])O.[Ga]`: the T/C by setting is: (dose: 12.5 mg/kg/injection, schedule: Q01DX011 (ip), vehicle: saline) 20 % of control; (dose: 25.0 mg/kg/injection, schedule: Q01DX011 (ip), vehicle: saline) 24 % of control; (dose: 50.0 mg/kg/injection, schedule: Q01DX011 (ip), vehicle: saline) 7 % of control.

Consider `NNc1nncc2ccccc12`, for which the T/C (dose: 37.5 mg/kg/injection, schedule: Q01DX011 (ip), vehicle: carboxymethylcellulose (CMC)) was 90 % of control and the T/C (dose: 75.0 mg/kg/injection, schedule: Q01DX011 (ip), vehicle: carboxymethylcellulose (CMC)) is 47 % of control.

For `CCN(CC)Cc1nc2c(c(=O)n(C)c(=O)n2C)n1C`, the T/C was 93 % of control (dose: 30.0 mg/kg/injection, schedule: Q01DX011 (ip), vehicle: methylcellulose (MC)); 54 % of control (dose: 60.0 mg/kg/injection, schedule: Q01DX011 (ip), vehicle: methylcellulose (MC)); 40 % of control (dose: 120.0 mg/kg/injection, schedule: Q01DX011 (ip), vehicle: methylcellulose (MC)).

Regarding `Cn1cnc2nc[nH]c2c1=O`, the T/C (dose: 31.2 mg/kg/injection, schedule: Q01DX011 (ip), vehicle: carboxymethylcellulose (CMC)) is 95 % of control; the T/C under setting [2] was 99 % of control; the T/C (dose: 125.0 mg/kg/injection, schedule: Q01DX011 (ip), vehicle: carboxymethylcellulose (CMC)) was 108 % of control; the T/C (dose: 250.0 mg/kg/injection, schedule: Q01DX011 (ip), vehicle: carboxymethylcellulose (CMC)) is 116 % of control.

Consider `Cc1cccc(Nc2c(N)nc(N)nc2N)c1`, for which the T/C is 50 % of control (dose: 11.0 mg/kg/injection, schedule: Q01DX011 (ip), vehicle: carboxymethylcellulose (CMC)); 61 % of control (dose: 22.0 mg/kg/injection, schedule: Q01DX011 (ip), vehicle: carboxymethylcellulose (CMC)); 32 % of control (dose: 44.0 mg/kg/injection, schedule: Q01DX011 (ip), vehicle: carboxymethylcellulose (CMC)); 48 % of control (dose: 88.0 mg/kg/injection, schedule: Q01DX011 (ip), vehicle: carboxymethylcellulose (CMC)).

Take `NS(=O)(=O)c1ncnc2nc[nH]c12`: the T/C runs as follows: (dose: 3.1 mg/kg/injection, schedule: Q01DX011 (ip), vehicle: methylcellulose (MC)) 105 % of control; (dose: 6.2 mg/kg/injection, schedule: Q01DX011 (ip), vehicle: methylcellulose (MC)) 78 % of control; (dose: 12.5 mg/kg/injection, schedule: Q01DX011 (ip), vehicle: methylcellulose (MC)) 15 % of control; under setting [3], 3 % of control and 9 % of control.

As to `O=P(Oc1ccccc1)(OP(=O)(Oc1ccccc1)N(CCCl)CCCl)N(CCCl)CCCl` (stereo not drawn), the T/C was 82 % of control under setting [4] and 66 % of control under setting [5].

Take `CN(C)/N=N/c1nc[nH]c1C(N)=O`: the T/C was 79 % of control (dose: 5.0 mg/kg/injection, schedule: Q01DX011 (ip), vehicle: carboxymethylcellulose (CMC)); 59 % of control (dose: 10.0 mg/kg/injection, schedule: Q01DX011 (ip), vehicle: carboxymethylcellulose (CMC)); 50 % of control under setting [1]; 54 % of control (dose: 16.0 mg/kg/injection, schedule: Q01DX011 (ip), vehicle: methylcellulose (MC)); 53 % of control and 57 % of control (dose: 20.0 mg/kg/injection, schedule: Q01DX011 (ip), vehicle: carboxymethylcellulose (CMC)); 64 % of control (dose: 20.0 mg/kg/injection, schedule: Q01DX011 (ip), vehicle: saline). Besides, the T/C under setting [3] was 37 % of control; the T/C (dose: 31.0 mg/kg/injection, schedule: Q01DX011 (ip), vehicle: carboxymethylcellulose (CMC)) is 52 % of control; the T/C (dose: 31.0 mg/kg/injection, schedule: Q01DX011 (ip), vehicle: methylcellulose (MC)) is 62 % of control; the T/C (dose: 40.0 mg/kg/injection, schedule: Q01DX011 (ip), vehicle: saline) is 63 % of control; the T/C under setting [6] is 30 % of control; the T/C (dose: 62.0 mg/kg/injection, schedule: Q01DX011 (ip), vehicle: carboxymethylcellulose (CMC)) is 47 % of control. Besides, the T/C is 94 % of control (dose: 62.0 mg/kg/injection, schedule: Q01DX011 (ip), vehicle: methylcellulose (MC)); 55 % of control under setting [2]; 30 % of control (dose: 80.0 mg/kg/injection, schedule: Q01DX011 (ip), vehicle: saline); 22 % of control under setting [7]; 17 % of control (dose: 160.0 mg/kg/injection, schedule: Q01DX011 (ip), vehicle: saline); 3 % of control (dose: 600.0 mg/kg/injection, schedule: Q01DX011 (ip), vehicle: saline).

Turning to `Cc1ccc(N=S=O)cc1`, the T/C under setting [8] was 68 % of control.

Regarding `CCC(=O)OCC1OC(n2cnc3c(=S)nc(N)[nH]c32)C(OC(=O)CC)C1OC(=O)CC` (stereo not drawn), the T/C (dose: 1.5 mg/kg/injection, schedule: Q01DX011 (ip), vehicle: carboxymethylcellulose (CMC)) was 96 % of control; the T/C (dose: 3.0 mg/kg/injection, schedule: Q01DX011 (ip), vehicle: carboxymethylcellulose (CMC)) is 17 % of control; the T/C (dose: 6.0 mg/kg/injection, schedule: Q01DX011 (ip), vehicle: carboxymethylcellulose (CMC)) was 3 % of control; the T/C (dose: 12.0 mg/kg/injection, schedule: Q01DX011 (ip), vehicle: carboxymethylcellulose (CMC)) is 1 % of control.

`NC(=O)c1cc(N)nc(Cl)n1`: the T/C runs as follows: (dose: 15.0 mg/kg/injection, schedule: Q01DX011 (ip), vehicle: saline) 102 % of control; (dose: 31.0 mg/kg/injection, schedule: Q01DX011 (ip), vehicle: saline) 90 % of control; (dose: 62.0 mg/kg/injection, schedule: Q01DX011 (ip), vehicle: saline) 87 % of control; under setting [8], 83 % of control; (dose: 250.0 mg/kg/injection, schedule: Q01DX011 (ip), vehicle: saline) 61 % of control.

In the case of `CCOC(=O)c1cc[c]([Sb](=[O])([OH])[OH])cc1`, the T/C was 116 % of control under setting [1]; 70 % of control (dose: 15.0 mg/kg/injection, schedule: Q01DX011 (ip), vehicle: carboxymethylcellulose (CMC)); 55 % of control under setting [6]; 102 % of control under setting [7].

As for `CSc1cc(NCc2ccccc2)nc(N)n1`, the T/C was 85 % of control under setting [3] and 65 % of control (dose: 75.0 mg/kg/injection, schedule: Q01DX011 (ip), vehicle: methylcellulose (MC)).

For `CCCCCCC(=O)NC1=C(N2CC2)C(=O)C(NC(=O)CCCCCC)=C(N2CC2)C1=O`, the T/C (dose: 11.25 mg/kg/injection, schedule: Q01DX011 (ip), vehicle: carboxymethylcellulose (CMC)) was 48 % of control and the T/C (dose: 45.0 mg/kg/injection, schedule: Q01DX011 (ip), vehicle: carboxymethylcellulose (CMC)) was 4 % of control.

`CC(=O)NCCc1ccccc1`: the T/C (dose: 12.5 mg/kg/injection, schedule: Q01DX011 (ip), vehicle: other) is 106 % of control; the T/C under setting [4] was 71 % of control; the T/C under setting [5] is 99 % of control; the T/C (dose: 100.0 mg/kg/injection, schedule: Q01DX011 (ip), vehicle: other) is 87 % of control; the T/C (dose: 200.0 mg/kg/injection, schedule: Q01DX011 (ip), vehicle: other) was 59 % of control; the T/C (dose: 400.0 mg/kg/injection, schedule: Q01DX011 (ip), vehicle: other) is 49 % of control.

On to `O=C(Nc1ccc(N=Nc2ccc(O)c(C(=O)O)c2)c(S(=O)(=O)O)c1)c1ccc(C(=O)Nc2ccc(N=Nc3ccc(O)c(C(=O)O)c3)c(S(=O)(=O)O)c2)cc1`, for which the T/C runs as follows: (dose: 30.0 mg/kg/injection, schedule: Q01DX011 (ip), vehicle: carboxymethylcellulose (CMC)) 82 % of control; (dose: 60.0 mg/kg/injection, schedule: Q01DX011 (ip), vehicle: carboxymethylcellulose (CMC)) 64 % of control; (dose: 120.0 mg/kg/injection, schedule: Q01DX011 (ip), vehicle: carboxymethylcellulose (CMC)) 70 % of control; (dose: 240.0 mg/kg/injection, schedule: Q01DX011 (ip), vehicle: carboxymethylcellulose (CMC)) 42 % of control.
